These results are taken from patent US20250129096A1, “ANNULATED 2-AMINO-3-CYANO THIOPHENES AND DERIVATIVES FOR THE TREATMENT OF CANCER” (Boehringer Ingelheim Int'l GmbH Corp., priority 2021, published 2025).

For orientation: IC50 means the concentration that inhibits the measured activity by half. Read a high IC50 as a need for much substance. What is called solubility is the dissolved amount per volume that the medium holds.

Values after ≈ are worked out from the molar mass of the structure shown. Where two headings read alike, the source gives them in different places.

In series [1] the target is KRAS G12D Ba/F3 cells (Homo sapiens, UniProt P01116, G12D, cells depend on it). Description: Ba/F3 proliferation assay, KRAS G12D. Conditions: 72 h, AlamarBlue; read-out: KRAS G12D Ba/F3 IC50. The format is cell-based. In general terms: The colour change of resazurin is a common sign of viable cells or microbes.
For series [2], the system named is SAS cells (HNSCC, wt amplified). The series can be described thus: SAS CTG proliferation assay (120 h). Conditions: CellTiter-Glo. The format is cell-based. How it is done: (§1) SAS cells (JCRB0260) are dispensed into 384-well plates, flat and clear bottom (Greiner, PNr. 781091) at a density of 300 cells per well in 60 μL DMEM:F12 (Gibco 31330-038)+10% Fetal Calf Serum (HyClone, PNr.: SH30084.03) and incubated at 37° C. in a CO2 incubator overnight. The next day, compounds (10 mM stock in DMSO) are added with the ECHO acoustic liquid handler system (Beckman Coulter), including DMSO controls. Plates are incubated for 120 h, and cell viability is measured using CellTiter-Glo luminescent cell viability reagent (Promega product code G7570). Viability (stated as percent of control) is defined as relative luminescence units RLU of each well divided by the RLU of cells in DMSO controls. IC50 values are determined from viability measurements by non-linear regression using a four-parameter model.

Series [3] deals with LOVO cells (CRC, G13D). The series can be described thus: LOVO CTG proliferation assay (120 h). Conditions: Homo sapiens, CellTiter-Glo. The format is cell-based. Here is the method:
as §1, with “LOVO cells (ATCC” for “SAS cells (JCRB0260)”, “LOVO cells (ATCC CCL-229) are dispensed” for “SAS cells (JCRB0260) are dispensed”, “density of 1000 cells per” for “density of 300 cells per”, “60 μL DMEM (Sigma D6429)+10% Fetal Calf” for “60 μL DMEM:F12 (Gibco 31330-038)+10% Fetal Calf”
For orientation: In ATP-based viability assays light output follows the ATP content of the culture.

Series [4] addresses T1, KRAS (G12D)::SOS1 (Homo sapiens, UniProt P01116, G12D).
T1 construct: KRAS (G12D) 1-169, N-terminal 6His-tag, C-terminal avi-tag; 6His-tag (N); purchased Xtal BioStructures, Inc. (KRAS G12D); Viva Biotech Ltd (SOS1)
Description: KRAS::SOS1 AlphaScreen binding assay, KRAS G12D.

Series [5] can be described thus: Solubility measurement (DMSO solution precipitation method). The format is physicochemical. Conditions: aqueous buffer, kinetic from dmso stock, ambient temperature. Summed up: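 Compound DMSO solution diluted into McIlvaine buffer (pH 4.5 or 6.8) to 250 μM final, shaken 24 h at ambient temperature. Precipitate removed by filtration. Filtrate concentration measured by LC-UV against a fully dissolved reference in acetonitrile/water (1:1).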

Series [6] concerns the target T2, KRAS (G12C)::SOS1 (Homo sapiens, UniProt P01116, C118S/C51S/C80L/G12C).
T2 construct: KRAS (G12C) 1-169, N-terminal 6His-tag for purification, cleaved off; 6His-tag (N, cleaved yes)
Description: KRAS::SOS1 AlphaScreen binding assay, KRAS G12C. For orientation: Alpha assays give light when donor and acceptor beads are brought close together.

KRAS G12D Ba/F3 cells, sequence (P01116 whole entry G12D): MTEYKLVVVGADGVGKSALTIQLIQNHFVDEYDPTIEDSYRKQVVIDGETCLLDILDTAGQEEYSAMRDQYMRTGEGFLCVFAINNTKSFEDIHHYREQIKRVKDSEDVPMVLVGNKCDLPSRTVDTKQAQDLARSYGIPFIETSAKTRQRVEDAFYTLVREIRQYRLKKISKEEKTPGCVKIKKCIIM
T2 sequence (P01116 1-169 isoform P01116-2 G12C/C51S/C80L/C118S): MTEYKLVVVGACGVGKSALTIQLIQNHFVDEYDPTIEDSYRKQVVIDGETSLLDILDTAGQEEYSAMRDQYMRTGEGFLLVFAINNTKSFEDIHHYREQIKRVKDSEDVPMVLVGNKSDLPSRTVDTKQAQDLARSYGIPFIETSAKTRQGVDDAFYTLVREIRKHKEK
T1 sequence (P01116 1-169 isoform P01116-2 G12D): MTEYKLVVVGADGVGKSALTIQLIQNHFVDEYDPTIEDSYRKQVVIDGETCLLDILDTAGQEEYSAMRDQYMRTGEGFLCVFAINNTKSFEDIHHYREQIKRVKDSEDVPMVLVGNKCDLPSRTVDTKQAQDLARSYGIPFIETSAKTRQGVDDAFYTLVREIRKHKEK

Consider `C[C@H](Oc1nccc(-c2onc3c2CCC[C@@]32CCCc3sc(N)c(C#N)c32)n1)[C@@H]1C[C@@H]2C[C@@H]2N1C` [Ih-1], for which, in series [1], the GI50 came out at 43 nM. Also, the IC50 was determined as 428 nM in series [2], 618 nM in series [3], 4 nM in series [4] and 7 nM in series [6]. The solubility at 24 h in series [5] (McIlvaine buffer pH 4.5, 24 h, read-out: solubility pH 4.5) was above 110 µg/mL; in series [5] (McIlvaine buffer pH 6.8, 24 h, read-out: solubility pH 6.8) it was 93 µg/mL (≈ 185 µM).
